The NIST ThermoML archive (doi:10.1021/je049612f)
Numbers after ± are expanded uncertainties.

Details: Gas, Vibrating wire viscometry

FS(F)(F)(F)(F)F [sulfur hexafluoride]
Details | viscosity [mPa·s]
375 K, 11030 kPa | 0.06052 ± 0.0012
375 K, 11466 kPa | 0.06322 ± 0.0013
375 K, 12235 kPa | 0.0678 ± 0.0013
375 K, 12730 kPa | 0.07044 ± 0.0013
375 K, 13213 kPa | 0.07319 ± 0.0014
375 K, 13867 kPa | 0.07655 ± 0.0014
375 K, 14447 kPa | 0.07948 ± 0.0014
375 K, 15713 kPa | 0.08527 ± 0.0015
375 K, 16802 kPa | 0.09 ± 0.0015
400 K, 100.75 kPa | 0.0197 ± 0.00093
400 K, 127.69 kPa | 0.01971 ± 0.00093
400 K, 153.61 kPa | 0.01972 ± 0.00093
400 K, 174.48 kPa | 0.01973 ± 0.00093
400 K, 200.5 kPa | 0.01973 ± 0.00093
400 K, 224.7 kPa | 0.01975 ± 0.00093
400 K, 249.97 kPa | 0.01975 ± 0.00093
400 K, 276.92 kPa | 0.01976 ± 0.00093
400 K, 316.57 kPa | 0.01977 ± 0.00093
400 K, 356.06 kPa | 0.01979 ± 0.00093
400 K, 387.16 kPa | 0.0198 ± 0.00093
400 K, 431.42 kPa | 0.01981 ± 0.00093
400 K, 458.7 kPa | 0.01982 ± 0.00093
400 K, 482.84 kPa | 0.01983 ± 0.00093
400 K, 520.38 kPa | 0.01984 ± 0.00093
400 K, 569.64 kPa | 0.01987 ± 0.00093
400 K, 636.33 kPa | 0.01989 ± 0.00093
400 K, 669.9 kPa | 0.0199 ± 0.00093
400 K, 702.5 kPa | 0.01991 ± 0.00093
400 K, 753.74 kPa | 0.01994 ± 0.00093
400 K, 791.41 kPa | 0.01995 ± 0.00093
400 K, 818.44 kPa | 0.01996 ± 0.00093
400 K, 853.97 kPa | 0.01998 ± 0.00093
400 K, 930.59 kPa | 0.02001 ± 0.00093
400 K, 972.98 kPa | 0.02003 ± 0.00093
400 K, 1025.6 kPa | 0.02006 ± 0.00093
400 K, 1088.2 kPa | 0.02009 ± 0.00093
400 K, 1153.3 kPa | 0.02012 ± 0.00093
400 K, 1240.9 kPa | 0.02017 ± 0.00093
400 K, 1319.7 kPa | 0.02022 ± 0.00093
400 K, 1397.4 kPa | 0.02025 ± 0.00093
400 K, 1462.5 kPa | 0.02029 ± 0.00093
400 K, 1615.7 kPa | 0.02039 ± 0.00093
400 K, 1688.5 kPa | 0.02043 ± 0.00093
400 K, 1768 kPa | 0.02049 ± 0.00093
400 K, 1876.4 kPa | 0.02057 ± 0.00093
400 K, 1956 kPa | 0.02063 ± 0.00093
400 K, 2349.8 kPa | 0.02093 ± 0.00094
400 K, 2474.2 kPa | 0.02104 ± 0.00094
400 K, 2539.4 kPa | 0.02109 ± 0.00094
400 K, 2835.4 kPa | 0.02138 ± 0.00094
400 K, 3021.7 kPa | 0.02156 ± 0.00094
400 K, 3266.3 kPa | 0.02184 ± 0.00094
400 K, 3463.7 kPa | 0.02205 ± 0.00094
400 K, 3614.2 kPa | 0.02225 ± 0.00095
400 K, 3864.1 kPa | 0.02256 ± 0.00095
400 K, 4152.9 kPa | 0.02298 ± 0.00095
400 K, 4564.1 kPa | 0.02363 ± 0.00096
400 K, 4898.5 kPa | 0.02421 ± 0.00096
400 K, 5193.2 kPa | 0.02477 ± 0.00097
400 K, 5460.7 kPa | 0.02531 ± 0.00097
400 K, 5742.7 kPa | 0.02594 ± 0.00098
400 K, 6016.6 kPa | 0.02658 ± 0.00098
400 K, 6359.6 kPa | 0.02746 ± 0.00099
400 K, 6659.9 kPa | 0.02831 ± 0.00099
400 K, 6950.7 kPa | 0.02917 ± 0.001
400 K, 7241 kPa | 0.03009 ± 0.001
400 K, 7553 kPa | 0.03115 ± 0.001
400 K, 7833.9 kPa | 0.03216 ± 0.001
400 K, 8142 kPa | 0.03332 ± 0.001
400 K, 8490.6 kPa | 0.03475 ± 0.001
400 K, 8799 kPa | 0.03604 ± 0.0011
400 K, 9139.9 kPa | 0.0375 ± 0.0011
400 K, 9483.5 kPa | 0.03903 ± 0.0011
400 K, 9833.2 kPa | 0.0407 ± 0.0011
400 K, 10191 kPa | 0.04234 ± 0.0011
400 K, 10589 kPa | 0.04429 ± 0.0011
400 K, 11000 kPa | 0.04619 ± 0.0011
400 K, 11434 kPa | 0.04827 ± 0.0011
400 K, 11902 kPa | 0.05055 ± 0.0012
400 K, 12397 kPa | 0.05295 ± 0.0012
400 K, 12979 kPa | 0.05567 ± 0.0012
400 K, 13719 kPa | 0.05901 ± 0.0012
400 K, 14342 kPa | 0.06179 ± 0.0013
400 K, 15061 kPa | 0.06486 ± 0.0013
400 K, 15882 kPa | 0.0684 ± 0.0013
400 K, 16792 kPa | 0.07201 ± 0.0013
400 K, 17814 kPa | 0.076 ± 0.0014
400 K, 18718 kPa | 0.07939 ± 0.0014
400 K, 19958 kPa | 0.08386 ± 0.0015
425 K, 94.41 kPa | 0.02078 ± 0.00094
425 K, 120.34 kPa | 0.0208 ± 0.00094
425 K, 155.2 kPa | 0.02081 ± 0.00094
425 K, 171.36 kPa | 0.02081 ± 0.00094
425 K, 192.07 kPa | 0.02082 ± 0.00094
425 K, 205.12 kPa | 0.02083 ± 0.00094
425 K, 228.29 kPa | 0.02084 ± 0.00094
425 K, 263.75 kPa | 0.02085 ± 0.00094
425 K, 289.54 kPa | 0.02086 ± 0.00094
425 K, 311.35 kPa | 0.02086 ± 0.00094
425 K, 345.33 kPa | 0.02088 ± 0.00094
425 K, 374.1 kPa | 0.02088 ± 0.00094
425 K, 392.73 kPa | 0.02089 ± 0.00094
425 K, 424.79 kPa | 0.0209 ± 0.00094
425 K, 466.85 kPa | 0.02092 ± 0.00094
425 K, 503.16 kPa | 0.02093 ± 0.00094
425 K, 552.86 kPa | 0.02095 ± 0.00094
425 K, 598.07 kPa | 0.02097 ± 0.00094
425 K, 629.86 kPa | 0.02098 ± 0.00094
425 K, 668.63 kPa | 0.021 ± 0.00094
425 K, 715.37 kPa | 0.02101 ± 0.00094
425 K, 764.24 kPa | 0.02103 ± 0.00094
425 K, 813.31 kPa | 0.02105 ± 0.00094
425 K, 867.54 kPa | 0.02108 ± 0.00094
425 K, 939.66 kPa | 0.02111 ± 0.00094
425 K, 997 kPa | 0.02114 ± 0.00094
425 K, 1067.1 kPa | 0.02117 ± 0.00094
425 K, 1141.5 kPa | 0.02121 ± 0.00094
425 K, 1213.4 kPa | 0.02124 ± 0.00094
425 K, 1299.4 kPa | 0.02129 ± 0.00094
425 K, 1385.6 kPa | 0.02133 ± 0.00094
425 K, 1442.8 kPa | 0.02137 ± 0.00094
425 K, 1506.3 kPa | 0.02141 ± 0.00094
425 K, 1587.6 kPa | 0.02145 ± 0.00094
425 K, 1656.3 kPa | 0.02149 ± 0.00094
425 K, 1757.6 kPa | 0.02155 ± 0.00094
425 K, 1833.5 kPa | 0.0216 ± 0.00094
425 K, 1920.5 kPa | 0.02166 ± 0.00094
425 K, 2344.2 kPa | 0.02196 ± 0.00094
425 K, 2479.6 kPa | 0.02206 ± 0.00094
425 K, 2578.5 kPa | 0.02214 ± 0.00095
425 K, 2931.1 kPa | 0.02244 ± 0.00095
425 K, 3150.4 kPa | 0.02264 ± 0.00095
425 K, 3325.5 kPa | 0.02282 ± 0.00095
425 K, 3586.1 kPa | 0.02307 ± 0.00095
425 K, 3797.1 kPa | 0.0233 ± 0.00096
425 K, 4066.4 kPa | 0.02362 ± 0.00096
425 K, 4298.8 kPa | 0.02388 ± 0.00096
425 K, 4546.2 kPa | 0.0242 ± 0.00096
425 K, 4863.6 kPa | 0.02464 ± 0.00097
425 K, 5124.6 kPa | 0.02501 ± 0.00097
425 K, 5454.2 kPa | 0.02553 ± 0.00097
425 K, 5739.4 kPa | 0.026 ± 0.00098
425 K, 6056.4 kPa | 0.02654 ± 0.00098
425 K, 6339.5 kPa | 0.02706 ± 0.00098
425 K, 6654.3 kPa | 0.02768 ± 0.00099
425 K, 7006 kPa | 0.0284 ± 0.001
425 K, 7363.2 kPa | 0.02921 ± 0.001
425 K, 7712.7 kPa | 0.03006 ± 0.001
425 K, 8064.1 kPa | 0.03097 ± 0.001
425 K, 8392.3 kPa | 0.03179 ± 0.001
425 K, 8760.7 kPa | 0.03277 ± 0.001
425 K, 9135.4 kPa | 0.03386 ± 0.001
425 K, 9514.5 kPa | 0.03501 ± 0.001
425 K, 9876.1 kPa | 0.03614 ± 0.0011
425 K, 10296 kPa | 0.03744 ± 0.0011
425 K, 10899 kPa | 0.03948 ± 0.0011
425 K, 11563 kPa | 0.04171 ± 0.0011
425 K, 11725 kPa | 0.04223 ± 0.0011
425 K, 12199 kPa | 0.04389 ± 0.0011
425 K, 12731 kPa | 0.04579 ± 0.0011
425 K, 13246 kPa | 0.04767 ± 0.0011
425 K, 14152 kPa | 0.0509 ± 0.0012
425 K, 14767 kPa | 0.05309 ± 0.0012
425 K, 15462 kPa | 0.05563 ± 0.0012
425 K, 16201 kPa | 0.05822 ± 0.0012
425 K, 17025 kPa | 0.06094 ± 0.0012
425 K, 17904 kPa | 0.06397 ± 0.0013
425 K, 18751 kPa | 0.06707 ± 0.0013
425 K, 19579 kPa | 0.06993 ± 0.0013
425 K, 20442 kPa | 0.07271 ± 0.0014
